# Source: publication PMC6290023 (Scientific Reports, 2018)
# Peptide text beside a SMILES is read from it.
# Test system: LPS-stimulated MG6 cells
# Experiment: Anti-inflammatory effect in LPS-stimulated MG6 cells (TNF-α / IL-6 ELISA)
# Type: cell-based, mouse
# Description: MG6 cells were obtained from RIKEN BRC (Tsukuba, Japan)[25],[26]. The MG6 cells were maintained in DMEM (Nakarai, Kyoto, Japan) supplemented with 10% FBS (Thermo Fisher Scientific, Waltham, MA, USA), 10 μg/ml insulin (Sigma-Aldrich, St. Louis, MO, USA) and 100 μM 2-mercaptoethanol (Sigma-Aldrich). These cells (1 × 10^5 cells) were plated in 96-well plastic culture dishes. After overnight incubation, the medium was replaced with DMEM supplemented with 4% FBS. LPS (Escherichia coli 0111: B4; Sigma-Aldrich, St. Louis, MO, USA) and MHP1 or modified MHP1 was added to the medium, which was then harvested at 24 h after stimulation. In the experiment checking the stability at 26 or 37 °C, MHP1-Ac or MHP1-AcN was incubated at 26 or 37 °C for 24 h before adding to the medium.
# The concentrations of TNF-α and IL-6 were measured using commercially available ELISA kits: TNF-α, Quantikine Mouse TNF-α ELISA Kit (R&D systems); IL-6, Quantikine Mouse IL-6 ELISA Kit (R&D systems).
# [1] = LPS-stimulated MG6 cells, medium harvested 24 h after stimulation, ELISA
smiles,measurement,setting,value
CC[C@H](C)[C@H](NC(=O)[C@H](CO)NC(=O)[C@@H](NC(=O)[C@H](CCCCN)NC(=O)[C@@H](NC(=O)[C@@H](NC(=O)[C@H](Cc1ccc(O)cc1)NC(=O)[C@@H](NC(=O)[C@H](CCSC)NC(=O)[C@H](CC(C)C)NC(C)=O)C(C)C)C(C)C)C(C)C)[C@@H](C)O)C(=O)N[C@@H](CCCCN)C(=O)N[C@H](C(=O)N1CCC[C@H]1C(=O)N[C@@H](CO)C(=O)N[C@@H](CO)C(=O)N[C@@H](Cc1c[nH]cn1)C(=O)N[C@@H](CC(N)=O)C(=O)N[C@@H](CC(C)C)C(=O)N[C@@H](CCSC)C(=O)N[C@@H](CCCCN)C(=O)NCC(=O)NCC(=O)N[C@@H](CO)C(=O)N[C@H](C(=O)N[C@@H](CCCCN)C(=O)N[C@@H](CC(N)=O)C(=O)N[C@@H](Cc1c[nH]c2ccccc12)C(=O)N[C@@H](CO)C(=O)NCC(=O)N[C@@H](CC(N)=O)C(N)=O)[C@@H](C)O)[C@@H](C)CC [MHP1-AcN] (Ac-LMVYVVKTSIKIPSSHNLMKGGSTKNWSGN-NH2),anti-inflammatory effects at 1 µg/ml,"LPS-stimulated MG6 cells, 1 µg/ml peptide",anti-inflammatory effects were seen
same,dose dependency of anti-inflammatory effects,"LPS-stimulated MG6 cells, 24 h, ELISA",Dose-dependent anti-inflammatory effects were observed
same,inhibition of IL-6 expression compared with MHP1,[1],more effective than MHP1
same,inhibition of TNF-α expression compared with MHP1,[1],more effective than MHP1
same,"expression of TNF-α with peptide pre-incubated at 4, 37 or 26 °C (retention of anti-inflammatory effect)","peptide incubated at 4, 37 or 26 °C for 24 h, then added to LPS-stimulated MG6 cells",no significant differences
